Data on five molecules can be found in patent US5625043A, “Anthracyclines with unusually high activity against cells resistant to doxorubicin and its analogs” (Priebe; Waldemar, priority 1995, dated 1997).

≈ marks a conversion by molar mass, not a printed value. Entries after “also recorded” stand apart in the source; their conditions may differ. Read-outs that look alike come from different tables or passages of the source.

Data set [1] relates to J774.2 cells. Description: Cytotoxicity against J774.2 cells. The class given is cell-based, murine. Particulars: for IC50: Mus musculus.
The conditions of data set [2]: cited from earlier work.
The test system of data set [3] is J7/40V cells. Description: Cytotoxicity against vinblastine-resistant J7/40V cells. The class given is cell-based, murine. The note with it: for RI J7/40V: J7/40V versus J774.2; for IC50: Mus musculus; for cytotoxicity (in words): vinblastine-resistant.
The conditions of data set [4]: versus same dose by bolus injections; cited from earlier work.
Data set [5] deals with J7/A300 cells. Put plainly: Cytotoxicity against AD 198-resistant J7/A300 cells. The class given is cell-based, murine. The note with it: for RI J7/A300: J7/A300 versus J774.2; for IC50: Mus musculus; for cytotoxicity (in words): J7/A300, AD 198-resistant.
Data set [6] concerns KB V1 cells. Put plainly: MTT cytotoxicity assay, DOX-resistant (MDR) KB V1 cells. The class given is cell-based, human. The note with it: for IC50: Homo sapiens; for RI (ID50 KB V1/ID50 KB 3-1): KB V1 versus KB 3-1; for cytotoxicity (in words): KB V1 (MDR, DOX-resistant). As for the experimental part:
The assay was performed as follows:
Doxorubicin was obtained from the Hospital Pharmacy (Adriamycin, Adria Laboratories, Columbus, Ohio). KB 3-1 human carcinoma and KB V1 were obtained from Dr. Michael M. Gottesman at the National Cancer Institute. […] KB 3-1 and KB V1 cells were grown in monolayers in Dulbecco's modified Eagle's medium containing 10% fetal bovine serum. For KB V1 cells, vinblastine was added to the culture medium (final concentration 0.5 μg/ml).
The MTT dye was obtained from Sigma Chemical Company, St. Louis, Mo. Cells were plated in 96-well microassay culture plates (10^4 cells/well) and grown for 24 h at 37° C. in a 5% CO2 incubator. Drugs were then added to the wells to achieve a final drug concentration ranging from 0.1 to 50 μg/ml (eight wells were used for each different concentration). The same volume of 0.9% NaCl solution in water with 1% DMSO was added to control wells. Wells containing culture medium alone without cells were used as blanks. The plates were incubated at 37° C. in a 5% CO2 incubator for 1 h (KB cells). When incubation was complete, 15 μl of stock solution of MTT dye in 0.9% NaCl solution in water was added to each well to achieve a final dye concentration of 0.5 mg/ml. The plate was incubated at 37° C. in a 5% CO2 incubator for 4 h. […] Complete solubilization was achieved by placing the plate in a mechanical shaker for 30 minutes at room temperature. The optical density of each well was then measured with a microplate spectrophotometer at a wavelength of 600 nm. The percent cell viability was calculated by the following equation: [formula]
(§1) The percent cell viability values obtained were plotted against the drug concentrations used, and the ID50 was calculated from the curve. Experiments were repeated at least three time.
In general terms: Formazan colour is commonly taken as a measure of viable cells.

The subject of data set [7] is KB 3-1 cells. Description: MTT cytotoxicity assay, DOX-sensitive KB 3-1 cells. The class given is cell-based. Particulars: Homo sapiens. As for the experimental part: An MTT assay was performed to determine the cytotoxicity of DOX, WP 546, and WP 549 to KB 3-1 (DOX-sensitive) and KB V1 (DOX-resistant) cells. The assay was performed as follows:
Doxorubicin was obtained from the Hospital Pharmacy (Adriamycin, Adria Laboratories, Columbus, Ohio). KB 3-1 human carcinoma and KB V1 were obtained from Dr. Michael M. Gottesman at the National Cancer Institute. KB V1 cells have the MDR phenotype and express glycoprotein P-170 in their membrane (Akiyama et al., Somat. Cell. Mol. Genet., 11:117, 1985; Shen et al., J. Biol. Chem., 261:7762, 1986.). KB 3-1 and KB V1 cells were grown in monolayers in Dulbecco's modified Eagle's medium containing 10% fetal bovine serum. For KB V1 cells, vinblastine was added to the culture medium (final concentration 0.5 μg/ml).
(§2) In vitro drug cytotoxicites against KB 3-1 and KB V1 cells were assessed by using the MTT reduction assay, as previously reported (Green et al., J. Immunol. Methods., 70:257, 1984). The MTT dye was obtained from Sigma Chemical Company, St. Louis, Mo. Cells were plated in 96-well microassay culture plates (10^4 cells/well) and grown for 24 h at 37° C. in a 5% CO2 incubator. Drugs were then added to the wells to achieve a final drug concentration ranging from 0.1 to 50 μg/ml (eight wells were used for each different concentration). The same volume of 0.9% NaCl solution in water with 1% DMSO was added to control wells. Wells containing culture medium alone without cells were used as blanks. The plates were incubated at 37° C. in a 5% CO2 incubator for 1 h (KB cells). When incubation was complete, 15 μl of stock solution of MTT dye in 0.9% NaCl solution in water was added to each well to achieve a final dye concentration of 0.5 mg/ml. […] The optical density of each well was then measured with a microplate spectrophotometer at a wavelength of 600 nm. The percent cell viability was calculated by the following equation: [formula]
(§3) The percent cell viability values obtained were plotted against the drug concentrations used, and the ID50 was calculated from the curve. […]

Data set [8] has as its system P388 (R) cells. Put plainly: MTT cytotoxicity assay, AD 198-resistant P388 (R) cells. The class given is cell-based, murine. Particulars: for IC50: Mus musculus, P388 (R), ± S.E., read-out: ID50 (the source's name); for RI: P388 (R) versus P388 (S); for cytotoxicity (in words): P388 AD 198-resistant. On the procedure: In vitro drug cytotoxicites against KB 3-1 and KB V1 cells were assessed by using the MTT reduction assay, as previously reported (Green et al., J. Immunol. Methods., 70:257, 1984). The MTT dye was obtained from Sigma Chemical Company, St. Louis, Mo. Cells were plated in 96-well microassay culture plates (10^4 cells/well) and grown for 24 h at 37° C. in a 5% CO2 incubator. Drugs were then added to the wells to achieve a final drug concentration ranging from 0.1 to 50 μg/ml (eight wells were used for each different concentration). The same volume of 0.9% NaCl solution in water with 1% DMSO was added to control wells. Wells containing culture medium alone without cells were used as blanks. The plates were incubated at 37° C. in a 5% CO2 incubator for 1 h (KB cells). When incubation was complete, 15 μl of stock solution of MTT dye in 0.9% NaCl solution in water was added to each well to achieve a final dye concentration of 0.5 mg/ml. The plate was incubated at 37° C. in a 5% CO2 incubator for 4 h. Subsequently, 100 μl of medium was removed from each well from the upper ]K<id,KD layer, and 100 μl of DMSO was added to solubilize the MTT formazan. Complete solubilization was achieved by placing the plate in a mechanical shaker for 30 minutes at room temperature. The optical density of each well was then measured with a microplate spectrophotometer at a wavelength of 600 nm. The percent cell viability was calculated by the following equation: [formula]
as §1
An MTT assay to determine the cytotoxicity of WP 546 and WP 549 to AD 198-resistant {P 388 (R)} and AD 198-sensitive {P388 (S)} cells was performed in a manner similar to that described above.

Data set [9] deals with tumor cells resistant to doxorubicin, AD 198, and vinblastine. Put plainly: Cytotoxicity against drug-resistant tumor cells (general statement). In kind it is cell-based.
Data set [10] deals with P388 (S) cells. Description: MTT cytotoxicity assay, AD 198-sensitive P388 (S) cells. The class given is cell-based, murine. The note with it: Mus musculus, ± S.E., read-out: ID50 (the source's name). As for the experimental part:
as §2, with “mg/ml. The plate was incubated at 37° C. in a 5% CO2 incubator for 4 h.” for “mg/ml.”
as §3

The mark [11] stands for this setting: J774.2, read-out: ID50 (the source's name).
Setting [12] is: J7/40V, read-out: ID50 (the source's name).
Where [13] appears, read: J7/A300, read-out: ID50 (the source's name).
The mark [14] stands for this setting: KB V1 (R), MTT, 1 h drug incubation, read-out: ID50 (the source's name).
The mark [15] stands for this setting: KB 3-1 (S), MTT, 1 h drug incubation, read-out: ID50 (the source's name).

Take `COc1cccc2c1C(=O)c1c(O)c3c(c(O)c1C2=O)C[C@@](O)(C(=O)CO)C[C@@H]3O[C@H]1C[C@H](N)[C@H](O)[C@H](C)O1` [Doxorubicin, doxorubicin]: the IC50 in [1] (J774.2, read-out: ID50) came to 24 nM; in data set [3] (read-out: ID50) it was 755 nM; in [5] (read-out: ID50), 586 nM; in data set [6] (KB-V1, 1 h, read-out: ID50) it was 64 µg/mL (≈ 118 µM); in data set [7] (KB 3-1, 1 h, read-out: ID50), 1.1 µg/mL (≈ 2.02 µM). The adverse systemic effects entry in data set [2] (in vivo) was “acute myelosuppression, cumulative cardiotoxicity, and gastrointestinal toxicity”. Also, the cardiomyopathy result in data set [2] (related to total dose) is “unusual cardiomyopathy, the occurrence of which is related to the total dose of the drug; it is often irreversible”. Moreover, the “RI J7/40V” value in [3] came out at 31. In data set [4], the “efficacy of 96-hr continuous infusion” value is “as effective as”. The “toxicity of 96-hr continuous infusion” value in data set [4] is listed as “much less toxic”. For the same molecule, the “RI J7/A300” value in data set [5] was found to be 24. Moreover, the “RI (ID50 KB V1/ID50 KB 3-1)” value in data set [6] turned out to be 58.2.

Consider `COc1cccc2c1C(=O)c1c(O)c3c(c(O)c1C2=O)C[C@@](O)(C(=O)CO)C[C@@H]3O[C@H]1C[C@H](OCc2ccccc2)[C@H](O)[C@H](C)O1` [WP 546, 7-O-(3-O-benzyl-2,6-dideoxy-α-L-lyxo-hexopyranosyl)adriamycinone], for which the “cytotoxicity (in words)” value in [1] (J774.2) was “shown to kill KB V1 cells and J774.2 cells”; in data set [8], “more cytotoxic towards cells selected for the resistance than that of a wild type; also recorded: demonstrated cytotoxicity”; in data set [3] (J7/40V), “shown to have cytotoxic effects”; in data set [5], “demonstrated cytotoxicity”; in data set [9], “surprisingly broad cytotoxicity; also recorded: unexpected cytotoxic activity; also recorded: very high cytotoxicity”; in data set [9] (listed as 3'-O-benzyl-doxorubicin) it was “surprisingly similar in DOX-sensitive and DOX-resistant cell lines”. For the same molecule, in [6], the “cytotoxicity (in words)” value is “unexpectedly more cytotoxic against MDR cells than against parent cells; also recorded: ability to kill DOX-resistant and vinblastine resistant cells; also recorded: shown to kill KB V1 cells”. Moreover, the IC50 worked out at 1100 nM in [1] (setting [11]); 690 ± 230 nM in data set [8]; 2350 nM in data set [3] (setting [12]); 2430 nM in data set [5] (setting [13]); 4.1 µg/mL (≈ 6.46 µM) in data set [6] (setting [14]); 920 ± 360 nM in data set [10]. The IC50 in data set [7] (setting [15]) came to 4.6 µg/mL (≈ 7.25 µM). In data set [8], this molecule returned an RI of 0.8. For the same molecule, the “RI J7/40V” value in [3] was found to be 2.2. Further, the “RI J7/A300” value in data set [5] is on record as 2.2. Besides, the “RI (ID50 KB V1/ID50 KB 3-1)” value in data set [6] turned out to be 0.9.

On to `CCCCC(=O)OCC(=O)[C@]1(O)Cc2c(O)c3c(c(O)c2[C@@H](O[C@H]2C[C@H](OCc4ccccc4)[C@H](O)[C@H](C)O2)C1)C(=O)c1c(OC)cccc1C3=O` [WP 549, 7-O-(3-O-benzyl-2,6-dideoxy-α-L-lyxo-hexopyranosyl)-14-O-valeroyl-adriamycinone], for which the “cytotoxicity (in words)” value in data set [1] (J774.2) was “shown to kill KB V1 cells and J774.2 cells”; in data set [8], “more cytotoxic towards cells selected for the resistance than that of a wild type; also recorded: demonstrated cytotoxicity”; in data set [3] (J7/40V), “shown to have cytotoxic effects”; in [5] it was “demonstrated cytotoxicity”; in data set [9], “surprisingly broad cytotoxicity; also recorded: unexpected cytotoxic activity; also recorded: very high cytotoxicity”; in [6] it was “unexpectedly more cytotoxic against MDR cells than against parent cells; also recorded: ability to kill DOX-resistant and vinblastine resistant cells; also recorded: shown to kill KB V1 cells”. In addition, the IC50 in [1] (setting [11]) is 1430 nM; in [8], 730 ± 80 nM; in data set [3] (setting [12]), 3150 nM; in data set [5] (setting [13]) it was 2770 nM; in data set [6] (setting [14]) it was 4.7 µg/mL (≈ 6.54 µM); in [10], 1410 ± 230 nM. The IC50 in [7] (setting [15]) came to 8.9 µg/mL (≈ 12.4 µM). The RI in [8] was found to be 0.5. For the same molecule, the “RI J7/40V” value in data set [3] is listed as 2.3. The “RI J7/A300” value in [5] worked out at 1.9. In data set [6], the “RI (ID50 KB V1/ID50 KB 3-1)” value is on record as 0.5.

As for `COc1cccc2c1C(=O)c1c(O)c3c(c(O)c1C2=O)C[C@@](O)(C(C)=O)C[C@@H]3O[C@H]1C[C@H](N)[C@H](O)[C@H](C)O1` [daunorubicin], in [2] (in vivo), the cardiomyopathy result is “unusual cardiomyopathy, the occurrence of which is related to the total dose of the drug; it is often irreversible”.

`CC[C@]1(O)C[C@@H]2CN(CCc3c([nH]c4ccccc34)[C@@](C(=O)OC)(c3cc4c(cc3OC)N(C)[C@H]3[C@@](O)(C(=O)OC)[C@H](OC(C)=O)[C@]5(CC)C=CCN6CC[C@]43[C@@H]65)C2)C1` [vinblastine, reference compound]: the “resistance of cell line to the selecting drug” value in data set [3] (J7/40V selected for resistance to vinblastine) is given as 120 -fold.
